Laboratory results as given in patent US20260285850A1, “SUBSTITUTED OXAZOLIDINONES AND IMIDAZOLINONES AS HERBICIDES” (FMC CORPORATION, priority 2023, published 2026).

Legend:
Type in all cases: in vivo
[1] = system: barnyardgrass (Echinochloa crus-galli); assay: Test A preemergence soil spray, visual injury rating 0-100; conditions: 10 days, 0 = no effect, 100 = complete control
Outline: (§1)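 Seeds sown in loam-sand blend got a preemergence directed soil spray, or emerged plants (2-10 cm, one- to two-leaf) got a postemergence spray, of compound in non-phytotoxic solvent with surfactant. After 10 days in greenhouse, injury rated visually versus untreated controls on a 0 (no effect) to 100 (complete control) scale.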

[2] = system: blackgrass (Alopecurus myosuroides); assay: as above; conditions: 10 days, 0 = no effect, 100 = complete control
Outline: as §1

corn (Zea mays) [3] = assay: as above; conditions: 10 days, 0 = no effect, 100 = complete control
Outline: as §1

[4] = system: green foxtail (Setaria viridis); assay: as above; conditions: 10 days, 0 = no effect, 100 = complete control
Outline: as §1

kochia (Bassia scoparia) [5] = assay: as above; conditions: 10 days, 0 = no effect, 100 = complete control
Outline: as §1

[6] = system: oat, wild (wild oat, Avena fatua); assay: as above; conditions: 10 days, 0 = no effect, 100 = complete control
Outline: as §1

[7] = system: ragweed (common ragweed, Ambrosia artemisiifolia); assay: as above; conditions: 10 days, 0 = no effect, 100 = complete control
Outline: as §1

[8] = system: ryegrass, Italian (italian ryegrass, Lolium multiflorum); assay: as above; conditions: 10 days, 0 = no effect, 100 = complete control
Outline: as §1

soybean (Glycine max) [9] = assay: as above; conditions: 10 days, 0 = no effect, 100 = complete control
Outline: as §1

[10] = system: wheat (Triticum aestivum); assay: as above; conditions: 500 g ai/ha, 10 days, 0 = no effect, 100 = complete control
Outline: as §1

[11] = system: barnyardgrass (Echinochloa crus-galli); assay: Test A postemergence application, visual injury rating 0-100; conditions: Postemergence, 10 days; for Barnyardgrass plant response rating (0 to 100 scale): 0 is no effect, 100 is complete control
Outline: as §1

[12] = system: blackgrass (Alopecurus myosuroides); assay: as above; conditions: Postemergence, 10 days; for Blackgrass plant response rating (0 to 100 scale): 0 is no effect, 100 is complete control
Outline: as §1

corn (Zea mays) [13] = assay: as above; conditions: Postemergence, 10 days, 0 is no effect, 100 is complete control
Outline: as §1

[14] = system: galium (catchweed bedstraw, Galium aparine); assay: as above; conditions: Postemergence, 10 days; for Galium plant response rating (0 to 100 scale): 0 is no effect, 100 is complete control
Outline: as §1

[15] = system: green foxtail (Setaria viridis); assay: as above; conditions: Postemergence, 10 days; for Foxtail, Green plant response rating (0 to 100 scale): 0 is no effect, 100 is complete control
Outline: as §1

[16] = system: horseweed (Erigeron canadensis); assay: as above; conditions: Postemergence, 10 days; for Horseweed plant response rating (0 to 100 scale): 0 is no effect, 100 is complete control
Outline: as §1

kochia (Bassia scoparia) [17] = assay: as above; conditions: Postemergence, 10 days; for Kochia plant response rating (0 to 100 scale): 0 is no effect, 100 is complete control
Outline: as §1

[18] = system: oat, wild (wild oat, Avena fatua); assay: as above; conditions: Postemergence, 10 days, 0 is no effect, 100 is complete control
Outline: as §1

[19] = system: palmer (palmer amaranth, palmer pigweed, Amaranthus palmeri); assay: as above; conditions: Postemergence, 10 days, 0 is no effect, 100 is complete control
Outline: as §1

[20] = system: ragweed (common ragweed, Ambrosia artemisiifolia); assay: as above; conditions: Postemergence, 10 days, 0 is no effect, 100 is complete control
Outline: as §1

[21] = system: ryegrass, Italian (italian ryegrass, Lolium multiflorum); assay: as above; conditions: Postemergence, 10 days, 0 is no effect, 100 is complete control
Outline: as §1

soybean (Glycine max) [22] = assay: as above; conditions: Postemergence, 10 days, 0 is no effect, 100 is complete control
Outline: as §1

[23] = system: wheat (Triticum aestivum); assay: as above; conditions: Postemergence, 10 days, 0 is no effect, 100 is complete control
Outline: as §1

[24] = system: barnyardgrass (Echinochloa crusgalli); assay: Test B flooded paddy test, visual plant response rating 0-100; conditions: 250 g ai/ha, Flood, applied to paddy water, evaluated after 13 days
Outline: (§2)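 Plants were grown to the 2-leaf stage, then pots were flooded to 3 cm above the soil and test compounds were applied directly into the paddy water. Water depth was held there throughout; after 13 days in a greenhouse, injury was scored visually against untreated controls.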

[25] = system: ducksalad (Heteranthera limosa); assay: as above; conditions: 250 g ai/ha, Flood, applied to paddy water, evaluated after 13 days
Outline: as §2

rice (Oryza sativa) = assay: as above; conditions: 250 g ai/ha, Flood, applied to paddy water, evaluated after 13 days
Outline: as §2

[26] = system: sedge, umbrella (small-flower umbrella sedge, Cyperus difformis); assay: as above; conditions: 250 g ai/ha, Flood, applied to paddy water, evaluated after 13 days
Outline: as §2

[27] = system: palmer (palmer amaranth, palmer pigweed, Amaranthus palmeri); assay: Test A preemergence soil spray, visual injury rating 0-100; conditions: 1000 g ai/ha, 10 days, 0 = no effect, 100 = complete control
Outline: as §1

## COC(=O)[C@H]1C[C@@H](NC(=O)C2(C)CN(c3cc(F)cc(F)c3)C(=O)O2)[C@H]2C[C@H]21 (stereo partly drawn) [Compound 176, methyl (1R,2S,4R,5S)-4-[[3-(3,5-difluorophenyl)-5-methyl-2-oxo-oxazolidine-5-carbonyl]amino]bicyclo[3.1.0]hexane-2-carboxylate]
[1]; 125 g ai/ha
  Barnyardgrass plant response rating (0 to 100 scale): 100
[1]; 500 g ai/ha
  Barnyardgrass plant response rating (0 to 100 scale): 100
[2]; 125 g ai/ha
  Blackgrass plant response rating (0 to 100 scale): 90
[2]; 500 g ai/ha
  Blackgrass plant response rating (0 to 100 scale): 100
Corn (Zea mays) [3]; 125 g ai/ha
  Corn plant response rating (0 to 100 scale): 70
Corn (Zea mays) [3]; 500 g ai/ha
  Corn plant response rating (0 to 100 scale): 100
[4]; 125 g ai/ha
  Foxtail, Green plant response rating (0 to 100 scale): 90
[4]; 500 g ai/ha
  Foxtail, Green plant response rating (0 to 100 scale): 100
Kochia (Bassia scoparia) [5]; 125 g ai/ha
  Kochia plant response rating (0 to 100 scale): 90
Kochia (Bassia scoparia) [5]; 500 g ai/ha
  Kochia plant response rating (0 to 100 scale): 100
[6]; 125 g ai/ha
  Oat, Wild plant response rating (0 to 100 scale): 90
[6]; 500 g ai/ha
  Oat, Wild plant response rating (0 to 100 scale): 90
[7]; 125 g ai/ha
  Ragweed plant response rating (0 to 100 scale): 0
[7]; 500 g ai/ha
  Ragweed plant response rating (0 to 100 scale): 0
[8]; 125 g ai/ha
  Ryegrass, Italian plant response rating (0 to 100 scale): 100
[8]; 500 g ai/ha
  Ryegrass, Italian plant response rating (0 to 100 scale): 100
Soybean (Glycine max) [9]; 125 g ai/ha
  Soybean plant response rating (0 to 100 scale): 70
Soybean (Glycine max) [9]; 500 g ai/ha
  Soybean plant response rating (0 to 100 scale): 80
[10]
  Wheat plant response rating (0 to 100 scale): 100
[11]; 125 g ai/ha
  Barnyardgrass plant response rating (0 to 100 scale): 100
[11]; 500 g ai/ha
  Barnyardgrass plant response rating (0 to 100 scale): 100
[12]; 125 g ai/ha
  Blackgrass plant response rating (0 to 100 scale): 90
[12]; 500 g ai/ha
  Blackgrass plant response rating (0 to 100 scale): 90
Corn (Zea mays) [13]; 125 g ai/ha
  Corn plant response rating (0 to 100 scale): 100
Corn (Zea mays) [13]; 500 g ai/ha
  Corn plant response rating (0 to 100 scale): 100
[14]; 125 g ai/ha
  Galium plant response rating (0 to 100 scale): 90
[14]; 500 g ai/ha
  Galium plant response rating (0 to 100 scale): 100
[15]; 125 g ai/ha
  Foxtail, Green plant response rating (0 to 100 scale): 90
[15]; 500 g ai/ha
  Foxtail, Green plant response rating (0 to 100 scale): 90
[16]; 125 g ai/ha
  Horseweed plant response rating (0 to 100 scale): 0
[16]; 500 g ai/ha
  Horseweed plant response rating (0 to 100 scale): 30
Kochia (Bassia scoparia) [17]; 125 g ai/ha
  Kochia plant response rating (0 to 100 scale): 90
Kochia (Bassia scoparia) [17]; 500 g ai/ha
  Kochia plant response rating (0 to 100 scale): 90
[18]; 125 g ai/ha
  Oat, Wild plant response rating (0 to 100 scale): 90
[18]; 500 g ai/ha
  Oat, Wild plant response rating (0 to 100 scale): 90
[19]; 125 g ai/ha
  Amaranth, Palmer / Pigweed, Palmer plant response rating (0 to 100 scale): 80
[19]; 500 g ai/ha
  Amaranth, Palmer / Pigweed, Palmer plant response rating (0 to 100 scale): 90
[20]; 125 g ai/ha
  Ragweed plant response rating (0 to 100 scale): 70
[20]; 500 g ai/ha
  Ragweed plant response rating (0 to 100 scale): 80
[21]; 125 g ai/ha
  Ryegrass, Italian plant response rating (0 to 100 scale): 100
[21]; 500 g ai/ha
  Ryegrass, Italian plant response rating (0 to 100 scale): 100
Soybean (Glycine max) [22]; 125 g ai/ha
  Soybean plant response rating (0 to 100 scale): 70
Soybean (Glycine max) [22]; 500 g ai/ha
  Soybean plant response rating (0 to 100 scale): 70
[23]; 125 g ai/ha
  Wheat plant response rating (0 to 100 scale): 90
[23]; 500 g ai/ha
  Wheat plant response rating (0 to 100 scale): 90
[24]
  Plant response rating, Barnyardgrass (0 to 100 scale, 0 is no effect and 100 is complete control): 55
[25]
  Plant response rating, Ducksalad (0 to 100 scale, 0 is no effect and 100 is complete control): 65
Rice (Oryza sativa)
  Plant response rating, Rice (0 to 100 scale, 0 is no effect and 100 is complete control): 35
[26]
  Plant response rating, Sedge, Umbrella (0 to 100 scale, 0 is no effect and 100 is complete control): 45

## CC1(C(=O)NC2CC=C(C(=O)O)C2)CN(c2cc(F)cc(F)c2)C(=O)N1 (stereo not drawn) [Compound 182]
[1]; 1000 g ai/ha
  Barnyardgrass plant response rating (0 to 100 scale): 80
[2]; 1000 g ai/ha
  Blackgrass plant response rating (0 to 100 scale): 90
[4]; 1000 g ai/ha
  Foxtail, Green plant response rating (0 to 100 scale): 100
Kochia (Bassia scoparia) [5]; 1000 g ai/ha
  Kochia plant response rating (0 to 100 scale): 90
[27]
  Amaranth, Palmer / Pigweed, Palmer plant response rating (0 to 100 scale): 90
[7]; 1000 g ai/ha
  Ragweed plant response rating (0 to 100 scale): 30
[8]; 1000 g ai/ha
  Ryegrass, Italian plant response rating (0 to 100 scale): 90
[11]; 1000 g ai/ha, 0 to 100 scale
  Barnyardgrass plant response rating: 90
[12]; 1000 g ai/ha, 0 to 100 scale
  Blackgrass plant response rating: 90
[14]; 1000 g ai/ha, 0 to 100 scale
  Galium plant response rating: 90
[15]; 1000 g ai/ha, 0 to 100 scale
  Foxtail, Green plant response rating: 90
[16]; 1000 g ai/ha, 0 to 100 scale
  Horseweed plant response rating: 80
Kochia (Bassia scoparia) [17]; 1000 g ai/ha, 0 to 100 scale
  Kochia plant response rating: 80
[24]
  Plant response rating, Barnyardgrass (0 to 100 scale, 0 is no effect and 100 is complete control): 20
[25]
  Plant response rating, Ducksalad (0 to 100 scale, 0 is no effect and 100 is complete control): 60
Rice (Oryza sativa)
  Plant response rating, Rice (0 to 100 scale, 0 is no effect and 100 is complete control): 15
[26]
  Plant response rating, Sedge, Umbrella (0 to 100 scale, 0 is no effect and 100 is complete control): 70
